The record followed here is patent US7812116B2, “Immunogenic peptides” (Rush University Medical Center, priority 2003, dated 2010).

The target in one experiment is HLA-A2.1 (Homo sapiens, UniProt P04439, D140Y/D185E/D98H/E176V/E277Q/G131W/G231S/I119V/I121R/I166T/I218V/L300P/L318F/N151K/N90K/P208A/P217A/Q86G/Q94H/R138H/R169H/T345S). The experiment in a line: Peptide/HLA-A2.1 complex stability on T2 cells under Brefeldin A treatment. The experiment is classed as binding.
The next experiment concerns dendritic cells. The experiment in a line: Phenotypic analysis of mature dendritic (mDC) and T2 antigen-presenting cells. The experiment is classed as cell-based, human. As to conditions: DCs from CD14+ monocytes, maturation factor during last three days of culture. On the procedure:
Immature DCs can be generated according to modified protocols of Romani N, et al., J Exp Med 180, pp. 83-89, 1994; and Bakker et al., Cancer Res 55, pp. 5330-5334, 1995. Briefly, fresh or frozen/thawed CD14+cells are cultured in RPMI 1640 medium (Gibco-Life Technologies, Gaithersburg, Md.) supplemented with 10% FCS, 1,000 U/ml GM-CSF and 1,000 U/ml IL-4. The cell cultures are fed with fresh medium and GM-CSF and IL-4 every other day and cell differentiation is monitored by light microscopy. On day 7, the cultures are supplemented with different combinations of DC maturation factors such as lipopolysaccharide (100 U/ml), TNF-α (10 ng/ml), or IFN-α (1,000 U/ml) plus TNF-α (10 ng/ml). After three days of incubation, mature DCs (mDC) are harvested and their phenotypes are evaluated by flow cytometry. The maturation factor(s) yielding optimal DC maturation are determined and used to generate mDCs for peptide pulsing in upcoming studies. In this example, immature DCs obtained by the culture of CD14+monocytes with GM-CSF (1,000 U/ml) and IL-4 (1,000 U/ml) are induced to undergo maturation by incubation with LPS (100 Units/ml), TNF-α (10 ng/ml) or TNF-α (10 ng/ml)+IFN-γ (50 ng/ml) during the final three days of the culture period. […] HLA-DR and no expression of CD3 or CD14 (data not shown). The highest up-regulation of the co-immunostimulatory (CD80 and CD86) and HLA-A2.1 MHC class I molecules is detected on DCs treated with TNF-α+IFN-γ (Table 5). […] The phenotype of the T2 cell line is evaluated to determine its potential for use as an alternative type of antigen presenting cell. […] The expression of CD80 is higher on T2 cells compared to mDCs.

As to “LLFLTPMEV (listed as Homo sapiens) [SEQ ID NO: 3, CD19 9-mer fragment]”, in the experiment with HLA-A2.1, the “HLA-A2.1 binding and stability in words” value was “good and prolonged stable binding”.

Regarding “SLFLGILSV (listed as Homo sapiens) [SEQ ID NO: 6, CD20 9-mer fragment]”, the “HLA-A2.1 binding and stability in words” value with HLA-A2.1 was “good and prolonged stable binding”.

Take “TLAYLIFCL (listed as Homo sapiens) [SEQ ID NO: 2, CD19 9-mer fragment]”: in the experiment with HLA-A2.1, the “HLA-A2.1 binding and stability in words” value is “good and prolonged stable binding”.

Consider TNF-α, for which, in the experiment on dendritic cells, the “CD80 mean channel fluorescence (MCF)” value is listed as 107, the “CD86 mean channel fluorescence (MCF)” value worked out at 96 and the “HLA-A2.1 mean channel fluorescence (MCF)” value was found to be 475.

For “lipopolysaccharide [LPS, reference compound]”, in the experiment on dendritic cells, the “CD80 mean channel fluorescence (MCF)” value is 71, the “CD86 mean channel fluorescence (MCF)” value worked out at 40 and the “HLA-A2.1 mean channel fluorescence (MCF)” value stood at 316.
